Assay results: patent publication US12195482B1 (Arcus Biosciences, Inc., priority 2022, dated 2025)

Target: T1, Axl (Homo sapiens, UniProt P30530)
T1 sequence (P30530 26-894): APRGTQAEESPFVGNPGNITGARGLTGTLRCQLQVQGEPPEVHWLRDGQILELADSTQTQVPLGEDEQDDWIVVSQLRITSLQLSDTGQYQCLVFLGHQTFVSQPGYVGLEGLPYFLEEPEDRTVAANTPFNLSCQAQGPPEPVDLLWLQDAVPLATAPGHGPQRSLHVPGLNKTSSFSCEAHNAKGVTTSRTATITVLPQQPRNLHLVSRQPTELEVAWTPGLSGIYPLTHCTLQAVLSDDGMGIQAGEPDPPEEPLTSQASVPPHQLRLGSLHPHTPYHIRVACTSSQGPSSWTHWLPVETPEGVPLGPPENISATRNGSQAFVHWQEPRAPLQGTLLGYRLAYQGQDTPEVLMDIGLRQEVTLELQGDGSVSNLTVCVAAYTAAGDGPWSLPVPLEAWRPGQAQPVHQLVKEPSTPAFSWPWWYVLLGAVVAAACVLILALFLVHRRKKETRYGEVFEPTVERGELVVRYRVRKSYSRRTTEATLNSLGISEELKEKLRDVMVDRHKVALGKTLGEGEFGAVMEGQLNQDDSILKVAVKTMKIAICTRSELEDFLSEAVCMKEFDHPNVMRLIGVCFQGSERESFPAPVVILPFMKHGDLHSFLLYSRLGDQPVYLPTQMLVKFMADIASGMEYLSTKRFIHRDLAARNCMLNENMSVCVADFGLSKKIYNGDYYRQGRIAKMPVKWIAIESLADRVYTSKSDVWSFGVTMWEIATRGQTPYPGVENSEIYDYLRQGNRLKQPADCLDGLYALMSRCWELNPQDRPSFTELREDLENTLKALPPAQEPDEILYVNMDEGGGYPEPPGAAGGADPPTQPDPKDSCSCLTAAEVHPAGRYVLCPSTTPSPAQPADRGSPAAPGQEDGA
Assay: Axl NanoBRET intracellular kinase assay (intracellular binding, K-5 tracer displacement)
Design: host or cells: HEK-293
Settings: HEK-293 cells transfected with Axl-NanoLuc, 0.35 μM K-5 NanoBRET tracer; read-out: Cell Binding AXL
Outline: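 HEK-293 cells transiently transfected with Axl-NanoLuc, 8K cells/well at 0.5% DMSO, pre-incubated 1 h with compound at 37 °C, then 2 h with 0.35 μM K-5 tracer. BRET ratio 610/450 nm; IC50 by 4-parameter fit of tracer displacement.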

SMILES: Clc1cc(-c2c[nH]c3ncc(-c4ccc5c(c4)CC[C@@H](N4C6COCC4C6)CC5)cc23)ccc1-c1ccccn1 [Example 44, 6-[(7S)-2-{3-[3-Chloro-4-(pyridin-2-yl)phenyl]-1H-pyrrolo[2,3-b]pyridin-5-yl}-6,7,8,9-tetrahydro-5H-benzo[7]annulen-7-yl]-3-oxa-6-azabicyclo[3.1.1]heptane]
- IC50: < 0.1 µM
